In assay [1] the target is T1, human emopamil binding protein and human 7-dehydrocholesterol reductase (hEBP-DHCR7) (Homo sapiens, UniProt Q15125).
T1 construct: expressed in transfected cells; host or cells: HEK 293 cells, transient transfection with 2 DNA constructs
In words: hEBP-DHCR7 radioligand filtration binding assay. Conditions: membranes of HEK293 co-expressing hEBP and DHCR7; [3H] 2-thia-6-azaspiro[3.4]octane radioligand; 8 doses 0.06 to 5000 nM. On the procedure:
Membrane Preparation: human emopamil binding protein and human 7-dehydrocholesterol reductase co-expressing cells were generated by transient transfecting host human embryonic kidney (HEK) 293 cells with 2 DNA constructs containing each protein's coding sequence. Cells were suspension cultured at 37° C. with 5% CO2 in […] 293 Expression Medium (Thermofisher). Whole cell membrane was prepared by harvesting the cell pellet, adding cold membrane buffer (50 mM Tris, pH7.5, lx Roche COMPLETE EDTA-free protease inhibitor cocktail) 10 times volume of the cell pellets weight, lysing cell pellet on ice by using Dounce homogenizer, spinning at 200 g 4° C. for 15 min, collecting supernatant and spinning again at 25000 g 4° C. for 50 min, transferring pellet to Dounce homogenizer, re-suspending pellet by homogenizing in membrane buffer on ice to reach ˜25 mg/mL, then keeping whole cell membrane aliquots at −80° C.
Compounds were prepared in a 96-well U bottom plate using an Echo550 machine and 10 mM compound DMSO stock solution, followed by an 8-dose 5-fold serial dilutions protocol with final testing compound concentration ranging from 0.06 to 5000 nM, with DMSO back fill to 100 nL/well and n=2. […] The UniFilter-96 GF/B plates were pre-treated by adding 50 µl/well of 0.3% (v/v) PEI to UniFilter-96 GF/B plates. The plates were sealed and incubated at 4° C. for 3 hrs. Then, the plates were washed with ice-cold assay buffer 3 times. The radioligand binding assay was prepared by adding assay buffer diluted hEBP-DHCR7 membrane at 66.7 μg/ml×150 l/well into the 96-well compound plate to reach 10 μg membrane per well. Then, the assay buffer diluted [3H]—((S)-6-(2-Methyl-3-(6-(trifluoromethyl)pyridin-3-yl)propyl)-2-thia-6-azaspiro[3.4]octane 2,2-dioxide or (R)-6-(2-Methyl-3-(6-(trifluoromethyl)pyridin-3-yl)propyl)-2-thia-6-azaspiro[3.4]octane 2,2-dioxide) was added at 25 nM×50 l/well. Following this, the plate was centrifuged at 1000 rpm for 30 secs. The plate was then sealed and agitated at 600 rpm at 22° C. for 5 min, and then incubated at 22° C. for 3 hrs. The incubation was stopped by transferring the binding solution to the pre-treated UniFilter-96 GF/B plate, vacuum filtrated, and then washed four times with ice-cold assay buffer. Following this, the plates were dried at 37° C. for 45 min. The plates were then sealed at the bottom. 40 µl/well of scintillation cocktail was added to the plates. A MicroBeta2 microplate counter was then used to read the plate and analyze the data. For reference and test compounds, the results are expressed as % Inhibition, using the normalization equation: N=100−100×(U−C2)/(C1−C2), where U is the unknown value, C1 is the average of high controls, and C2 is the average value of low controls. The IC50 was determined by fitting percentage of inhibition as a function of compound concentrations with Hill equation using XLfit. Results are expressed as hEBP-DHCR7 Ki (uM) in Table 4. Ki was calculated as described above; * indicates isolated isomer or isomers, but that the stereochemistry has not been assigned.

In assay [2] the test system is zymostenol accumulation in EpiSC-derived OPCs (EBP). The experiment in a line: GC/MS-based sterol profiling (zymostenol accumulation). The class given is cell-based. Conditions: Mus musculus, 24 hours, 8 doses from 0.15 nM to 333 nM, read-out: Zymostenol GCMS EC50. The protocol:
(§1) To assess effects of treatments on OPCs, all treatments were assayed in two or more independent platings of epiblast stem cell-derived OPCs (EpiSC). EpiSC-derived OPCs were obtained using in vitro differentiation protocols and culture conditions described previously (Najm et al, 2011, Nature Methods). OPCs were expanded and frozen down in aliquots. OPCs were thawed into growth conditions for at least one passage before use in further assays.
Sterols were monitored using a modified Folch wash protocol (Hubler et al, 2018, Nature). EpiSC-derived OPCs were plated at 100,000 cells per well in PO- and laminin-coated 96-well plates in N2B27 media without growth factors. After 24 hours, cells were rinsed with saline and plates were frozen. Cholesterol-d7 standard was then added to each well before drying under nitrogen stream and derivatization with 55 μl of bis(trimethylsilyl) trifluoroacetamide. After derivatization, 2 μl were analyzed by gas chromatography/mass spectrometry using an Agilent 5973 Network Mass Selective Detector equipped with a 6890 gas chromatograph system and a HP-5MS capillary column (30 m×0.25 mm×[…]). Samples were analyzed in full scan mode using electron impact ionization; ion fragment peaks were integrated to calculate sterol abundance, and quantitation was relative to cholesterol-d7. The following ion fragments were used to quantitate each metabolite: cholesterol-d7 (465), FF-Mas (482), cholesterol (368), zymostenol (458), zymosterol (456), Desmosterol (456, 343), 7-dehydrocholesterol (456, 325), lanosterol (393), lathosterol (458), 14-dehydrozymostenol (456, 351). […] All standards were obtained from Avanti Polar Lipids unless otherwise indicated. Calibration curves were generated by injecting varying concentrations of sterol standards and maintaining a fixed amount of cholesterol-D7. For normalized zymostenol accumulation results, the total amount of zymostenol measured after drug treatment was divided by the total amount of zymostenol accumulated after 24 hr treatment with 100 nM positive control reference.

For the next assay, the system named is EpiSC-derived OPCs. In words: In vitro phenotypic screening of OPCs (MBP high-content imaging). Conditions: Mus musculus, 72 h; percentage of MBP-positive oligodendrocytes, 3 days, 0.5 nM to 1000 nM; read-out: OPC EC50. The class given is cell-based. The protocol:
as §1
EpiSC-derived OPCs were grown and expanded in poly-L-ornithine (PO) and laminin-coated flasks in N2B27 media (DMEM/F12 (Gibco), N2-MAX (R&D Systems), B-27 (ThermoFisher), and GlutaMax (Gibco)) supplemented with FGF2 ([…], R&D systems, 233-FB-025) and PDGF-AA ([…], R&D systems, 233-AA-050) before harvesting for experiments. The cells were seeded onto poly-L-ornithine or poly-D-lysine coated CellCarrier Ultra plates (PerkinElmer) coated with laminin (Sigma, L2020) at a density of 150,000/cm^2 in N2B27 media without growth factors. For dose-response testing, a 1000× compound stock in dimethyl sulphoxide (DMSO) was added to assay plates, resulting in 8-point dose curves with final concentrations between 1000 nM and 0.5 nM. Positive controls and DMSO vehicle controls were included in each assay plate. Cells were incubated under standard conditions (37° C., 5% CO2) for 3 days and fixed with 4% paraformaldehyde (PFA) in phosphate buffered saline (PBS) for 20 min. Fixed plates were washed with PBS, permeabilized with 0.1% Triton X-100, and blocked with 10% donkey serum (v/v) in PBS for 40 min. Then, cells were labelled with MBP antibodies (Abcam, ab7349; 1:200) for 2 h at room temperature, washed with PBS, and stained with Alexa Fluor conjugated secondary antibodies (1:500) for 45 min. Nuclei were visualized by DAPI staining (Sigma; 1 μg/ml), followed by further PBS washes.
Cells and cell culture plates were imaged on the Operetta High Content Imaging and Analysis system (PerkinElmer). Analysis (PerkinElmer Harmony and Columbus software) began by identifying intact nuclei stained by DAPI. The peri-nuclear region of each cell was then cross-referenced with the […] (MBP) stain to identify oligodendrocyte nuclei, and from this the percentage of oligodendrocytes was calculated.

T1 sequence (Q15125 whole entry): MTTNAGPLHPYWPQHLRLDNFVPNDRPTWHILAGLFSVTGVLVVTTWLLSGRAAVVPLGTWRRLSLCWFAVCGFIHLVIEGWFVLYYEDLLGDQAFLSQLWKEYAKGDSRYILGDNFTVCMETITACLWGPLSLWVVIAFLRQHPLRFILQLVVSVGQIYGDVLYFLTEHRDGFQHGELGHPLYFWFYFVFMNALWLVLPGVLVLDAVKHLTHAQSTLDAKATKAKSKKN

Take `CC(C)n1nc(C2CCC(F)(F)CC2)cc1[C@H]1[C@@H]2C[C@@H](N3CCC4(C3)CS(=O)(=O)C4)C[C@@H]21` [Compound 108, 6-((1R,3s,5S,6r)-6-(3-(4,4-Difluorocyclohexyl)-1-isopropyl-1H-pyrazol-5-yl)bicyclo[3.1.0]hexan-3-yl)-2-thia-6-azaspiro[3.4]octane 2,2-dioxide]: in assay [1], the inhibition constant (Ki) (commonly the equilibrium dissociation constant of an inhibitor or competing ligand from its target) was determined as 21.6 nM. Moreover, the EC50 (in general, the concentration giving half of the maximal effect) turned out to be 10.6 nM in assay [2] and 102 nM in the assay with EpiSC-derived OPCs.

In assay [1], `O=S1(=O)CC2(CCN([C@@H]3C[C@@H]4[C@H](C3)[C@H]4c3cc(C(F)(F)F)nn3CC(F)F)CC2)C1` (single isomer, unassigned) [Compound 62*] gave a Ki of 134 nM. For the same compound, the values for the concentration for a half-maximal effect (EC50) (in assay [2]; with EpiSC-derived OPCs) were 12 nM and 60 nM, respectively.

For `CCn1nc(-c2cncc(F)c2)cc1[C@H]1[C@@H]2C[C@H](N3CCC4(C3)CS(=O)(=O)C4)C[C@@H]21` (single isomer, unassigned) [Compound 69*], the Ki in assay [1] came out at 34.3 nM. In addition, the EC50 in assay [2] was 4.4 nM; in the assay on EpiSC-derived OPCs, 27 nM.

Compound `O=S1(=O)CC2(CCN([C@@H]3C[C@@H]4[C@H](C3)[C@H]4c3cc(C(F)(F)F)nn3CC(F)F)C2)C1` (single isomer, unassigned) [Compound 90*] had a Ki in assay [1] of 70.5 nM. Moreover, the EC50 is 21 nM in assay [2] and 190 nM in the assay on EpiSC-derived OPCs.

`CCn1nc(-c2ccccn2)cc1[C@H]1[C@@H]2C[C@H](N3CCC4(C3)CS(=O)(=O)C4)C[C@@H]21` [Compound 73, 6-((1R,3r,5S,6r)-6-(1-ethyl-3-(pyridin-2-yl)-1H-pyrazol-5-yl)bicyclo[3.1.0]hexan-3-yl)-2-thia-6-azaspiro[3.4]octane 2,2-dioxide] registered a Ki in assay [1] of 59.1 nM. For the same compound, the results for the half-maximal effective concentration (EC50) (in assay [2]; in the assay with EpiSC-derived OPCs) were 32 nM and 92 nM, respectively.

`CC(C)n1nc(-c2cncc(C(F)(F)F)c2)cc1[C@H]1[C@@H]2C[C@@H](N3CC[C@@]4(CCS(=O)(=O)C4)C3)C[C@@H]21` (single isomer, unassigned) [Compound 7*] gave a Ki in assay [1] of 17.3 nM. The EC50 is 8.9 nM in assay [2] and 37 nM in the assay on EpiSC-derived OPCs.

Turning to `CC(C)n1nc(-c2cncc(C(F)(F)F)c2)cc1[C@H]1[C@@H]2C[C@@H](N3CC[C@]4(CCS(=O)(=O)C4)C3)C[C@@H]21` (single isomer, unassigned) [Compound 8*], affinity in assay [1] was put at a Ki of 18.1 nM. Besides, the EC50 is 3.6 nM in assay [2] and 2.5 nM with EpiSC-derived OPCs.

Consider `CCn1nc(-c2cncc(F)c2)cc1[C@H]1[C@@H]2C[C@@H](N3CCC4(C3)CS(=O)(=O)C4)C[C@@H]21` (single isomer, unassigned) [Compound 68*], for which the inhibition constant (Ki) in assay [1] was 86.2 nM. The half-maximal effective concentration (EC50) in assay [2] came out at 14 nM; in the assay with EpiSC-derived OPCs it was 60 nM.

In assay [1], `CCn1nc(-c2ccnc(C(F)(F)F)c2)cc1[C@H]1[C@@H]2C[C@@H](N3CCC4(C3)CS(=O)(=O)C4)C[C@@H]21` [Compound 26, 6-((1R,3s,5S,6r)-6-(1-ethyl-3-(2-(trifluoromethyl)pyridin-4-yl)-1H-pyrazol-5-yl)bicyclo[3.1.0]hexan-3-yl)-2-thia-6-azaspiro[3.4]octane 2,2-dioxide] showed an inhibitory constant (Ki) of 19.8 nM. The figures for the half-maximal effective concentration (EC50) (in assay [2]; with EpiSC-derived OPCs) were 4.4 nM and 6.5 nM, respectively.

In turn, `C[C@H](C(F)F)n1nc(C(F)(F)F)cc1[C@H]1[C@@H]2C[C@H](N3CCC4(CC3)CS(=O)(=O)C4)C[C@@H]21` (racemic) [Compound 71*, 7-((1R,3R,5S,6r)-6-(1-((R)-1,1-difluoropropan-2-yl)-3-(trifluoromethyl)-1H-pyrazol-5-yl)bicyclo[3.1.0]hexan-3-yl)-2-thia-7-azaspiro[3.5]nonane 2,2-dioxide and 7-((1R,3S,5S,6r)-6-(1-((S)-1,1-difluoropropan-2-yl)-3-(trifluoromethyl)-1H-pyrazol-5-yl)bicyclo[3.1.0]hexan-3-yl)-2-thia-7-azaspiro[3.5]nonane 2,2-dioxide] returned an inhibition constant Ki in assay [1] of 17.8 nM. In addition, the EC50 was 17 nM in assay [2] and 76 nM in the assay with EpiSC-derived OPCs.

`CC(C)n1nc(C(F)(F)F)cc1[C@H]1[C@@H]2C[C@H](N3CCC4(CC3)CS(=O)(=O)C4)C[C@@H]21` (single isomer, unassigned) [Compound 44*] yielded an inhibition constant Ki in assay [1] of 27 nM. Also, the EC50 in assay [2] was 6.8 nM; in the assay on EpiSC-derived OPCs, 14 nM.

`CC(C)n1nc(-c2cnc(C(F)(F)F)nc2)cc1[C@H]1[C@@H]2C[C@@H](N3CCC4(C3)CS(=O)(=O)C4)C[C@@H]21` (single isomer, unassigned) [Compound 102] gave an inhibition constant (Ki) in assay [1] of 42.5 nM. For the same compound, the EC50 in assay [2] was 14 nM; in the assay on EpiSC-derived OPCs it was 64.6 nM.

In assay [1], `CC(C)n1nc(-c2cccc(C(F)(F)F)c2)cc1[C@H]1[C@@H]2C[C@H](N3CCC4(C3)CS(=O)(=O)C4)C[C@@H]21` (single isomer, unassigned) [Compound 1] yielded an inhibition constant Ki of 13.1 nM. In addition, the EC50 in assay [2] was determined as 1.2 nM; with EpiSC-derived OPCs, 1.3 nM.

With `CC(C)(C)n1nc(C(F)(F)F)cc1[C@H]1[C@@H]2C[C@H](N3CCC4(C3)CS(=O)(=O)C4)C[C@@H]21` (single isomer, unassigned) [Compound 58], in assay [1], the Ki worked out at 12 nM. In addition, the concentration giving a half-maximal response (EC50) in assay [2] was 3.3 nM; in the assay with EpiSC-derived OPCs it was 19 nM.

(Values after US20240391930A1, “SPIROCYCLIC BICYCLIC MODULATORS OF CHOLESTEROL BIOSYNTHESIS AND THEIR USE FOR PROMOTING REMYELINATION” (GENENTECH, INC., priority 2021, published 2024).)
